Test results taken from patent publication US8664203B2, “Thiazole derivatives and their use as P2Y12 receptor antagonists” (Actelion Pharmaceuticals Ltd., priority 2009, dated 2014).
pIC50: −log10 of the molar value.

Molecular target: T1, human P2Y12 receptor (Homo sapiens, UniProt Q9H244)
T1 construct: expressed in transfected cells; host or cells: CHO cells
Assay: P2Y12 receptor binding assay
Settings: CHO cells with recombinant expression of the human P2Y12 receptor; tritium-labeled 2-methyl-S-ADP; RT, 2 hours
Experimental: P2Y12 Receptor Binding Assay
Chinese Hamster Ovary (CHO) cells with recombinant expression of the human P2Y12 receptor were cultured in 24 well cell-culture plates. Cells were washed three times with binding buffer (50 mM Tris pH 7.4, 100 mM NaCl, 1 mM EDTA, 0.5% BSA). The cells were then incubated with 0.5 ml per well binding buffer containing tritium-labeled 2-methyl-thio-adenosine 5′-diphosphate (2-methyl-S-ADP) (between 100′000 and 300′000 dpm per well) and various concentrations of test compounds. After incubation at RT for 2 hours, cells were washed three times with binding buffer. Then, cells were solubilized by addition of 0.5 ml solubilization buffer (SDS, NaOH, EDTA). The content of each well was then transferred into beta-counter vials and 2.0 ml of Ultima Gold Scintillation liquid was added.

T1 sequence (Q9H244 whole entry): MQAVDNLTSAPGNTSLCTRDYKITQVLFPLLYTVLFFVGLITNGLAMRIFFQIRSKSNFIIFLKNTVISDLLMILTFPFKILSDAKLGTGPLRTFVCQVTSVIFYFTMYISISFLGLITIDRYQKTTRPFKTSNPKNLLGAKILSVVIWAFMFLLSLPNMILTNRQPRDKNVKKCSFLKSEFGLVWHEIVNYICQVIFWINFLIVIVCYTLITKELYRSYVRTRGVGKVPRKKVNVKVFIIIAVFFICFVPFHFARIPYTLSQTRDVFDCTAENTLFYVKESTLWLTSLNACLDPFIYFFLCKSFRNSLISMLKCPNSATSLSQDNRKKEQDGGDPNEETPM

| pIC50 | SMILES |
| --- | --- |
| 7.33 | CCCCOC(=O)N1CCN(C(=O)CNC(=O)c2nc(-c3ccccc3)sc2NCCCOC)CC1 [Example 28, 4-(2-{[5-(3-Methoxy-propylamino)-2-phenyl-thiazole-4-carbonyl]-amino}-acetyl)-piperazine-1-carboxylic acid butyl ester] |
| 6.29 | CCCCOC(=O)N1CCN(C(=O)CNC(=O)c2nc(-c3ccccc3)c(/C=C/C(=O)OCC)s2)CC1 [Example 53, 4-(2-{[5-((E)-2-Ethoxycarbonyl-vinyl)-4-phenyl-thiazole-2-carbonyl]-amino}-acetyl)-piperazine-1-carboxylic acid butyl ester] |
| 6.82 | CCCCOC(=O)N1CCN(C(=O)[C@H](CP(=O)(O)O)NC(=O)c2nc(-c3ccccc3)c(-c3ccccc3)s2)CC1 [Example 49, 4-{(R)-2-[(4,5-Diphenyl-thiazole-2-carbonyl)-amino]-3-phosphono-propionyl}-piperazine-1-carboxylic acid butyl ester] |
| 7.89 | CCCCOC(=O)N1CCN(C(=O)[C@H](CP(=O)(O)O)NC(=O)c2nc(-c3ccccc3)sc2-c2ccccc2)CC1 [Example 43, 4-{(R)-2-[(2,5-Diphenyl-thiazole-4-carbonyl)-amino]-3-phosphono-propionyl}-piperazine-1-carboxylic acid butyl ester] |
| 7.00 | CCCCOC(=O)N1CCN(C(=O)CNC(=O)c2nc(-c3ccccc3)sc2CCCOC)CC1 [Example 35, 4-(2-{[5-(3-Methoxy-propyl)-2-phenyl-thiazole-4-carbonyl]-amino}-acetyl)-piperazine-1-carboxylic acid butyl ester] |
| 7.72 | CCCCOC(=O)N1CCN(C(=O)CNC(=O)c2nc(-c3ccccc3)sc2/C=C/C(=O)O)CC1 [Example 31, 4-(2-{[5-((E)-2-Carboxy-vinyl)-2-phenyl-thiazole-4-carbonyl]-amino}-acetyl)-piperazine-1-carboxylic acid butyl ester] |
| 8.22 | CCCCOC(=O)N1CCN(C(=O)[C@H](CP(=O)(O)O)NC(=O)c2nc(-c3ccccc3)c(Br)s2)CC1 [Example 48, 4-{(R)-2-[(5-Bromo-4-phenyl-thiazole-2-carbonyl)-amino]-3-phosphono-propionyl}-piperazine-1-carboxylic acid butyl ester] |
| 7.15 | CCCCOC(=O)N1CCN(C(=O)CNC(=O)c2nc(-c3ccccc3)sc2NCCC(=O)O)CC1 [Example 61, 4-(2-{[5-(2-Carboxy-ethylamino)-2-phenyl-thiazole-4-carbonyl]-amino}-acetyl)-piperazine-1-carboxylic acid butyl ester] |
| 6.28 | CCCCOC(=O)N1CCN(C(=O)CNC(=O)c2nc(-c3ccccc3)sc2-c2cccc(F)c2)CC1 [Example 29, 4-(2-{[5-(3-Fluoro-phenyl)-2-phenyl-thiazole-4-carbonyl]-amino}-acetyl)-piperazine-1-carboxylic acid butyl ester] |
| 7.46 | CCCCOC(=O)N1CCN(C(=O)[C@H](CO)NC(=O)c2nc(-c3ccccc3)sc2/C=C/C(=O)O)CC1 [Example 39, 4-((S)-2-{[5-((E)-2-Carboxy-vinyl)-2-phenyl-thiazole-4-carbonyl]-amino}-3-hydroxy-propionyl)-piperazine-1-carboxylic acid butyl ester] |
| 8.22 | CCCCOC(=O)N1CCN(C(=O)[C@H](CP(=O)(O)O)NC(=O)c2csc(-c3ccc(F)cc3)n2)CC1 [Example 41, 4-((R)-2-{[2-(4-Fluoro-phenyl)-thiazole-4-carbonyl]-amino}-3-phosphono-propionyl)-piperazine-1-carboxylic acid butyl ester] |
| 7.15 | CCCCOC(=O)N1CCN(C(=O)[C@H](CO)NC(=O)c2csc(-c3ccccc3)n2)CC1 [Example 38, 4-{(S)-3-Hydroxy-2-[(2-phenyl-thiazole-4-carbonyl)-amino]-propionyl}-piperazine-1-carboxylic acid butyl ester] |
| 7.47 | CCCCOC(=O)N1CCN(C(=O)CNC(=O)c2nc(-c3ccccc3)sc2NCCCO)CC1 [Example 27, 4-(2-{[5-(3-Hydroxy-propylamino)-2-phenyl-thiazole-4-carbonyl]-amino}-acetyl)-piperazine-1-carboxylic acid butyl ester] |
| 6.57 | CCCCOC(=O)N1CCN(C(=O)CNC(=O)c2nc(-c3ccccc3)sc2/C=C/C(=O)OCC)CC1 [Example 30, 4-(2-{[5-((E)-2-Ethoxycarbonyl-vinyl)-2-phenyl-thiazole-4-carbonyl]-amino}-acetyl)-piperazine-1-carboxylic acid butyl ester] |
| 6.26 | CCCCOC(=O)N1CCN(C(=O)CNC(=O)c2nc(-c3ccccc3)c(CCC(=O)OC)s2)CC1 [Example 54, 4-(2-{[5-(2-Methoxycarbonyl-ethyl)-4-phenyl-thiazole-2-carbonyl]-amino}-acetyl)-piperazine-1-carboxylic acid butyl ester] |
| 6.87 | CCCCOC(=O)N1CCN(C(=O)CNC(=O)c2nc(-c3ccccc3)sc2NCCC(=O)OCC)CC1 [Example 62, 4-(2-{[5-(2-Ethoxycarbonyl-ethylamino)-2-phenyl-thiazole-4-carbonyl]-amino}-acetyl)-piperazine-1-carboxylic acid butyl ester] |

Continued, compound first:

| SMILES | pIC50 |
| --- | --- |
| CCCCOC(=O)N1CCN(C(=O)[C@H](CCC(=O)O)NC(=O)c2csc(-c3ccccc3Oc3ccccc3)n2)CC1 [Example 3, 4-((S)-4-Carboxy-2-{[2-(2-phenoxy-phenyl)-thiazole-4-carbonyl]-amino}-butyryl)-piperazine-1-carboxylic acid butyl ester] | 5.83 |
| CCCCOC(=O)N1CCN(C(=O)[C@H](CCC(=O)O)NC(=O)c2nc(-c3ccccc3)sc2N2CCCC2)CC1 [Example 24, 4-{(S)-4-Carboxy-2-[(2-phenyl-5-pyrrolidin-1-yl-thiazole-4-carbonyl)-amino]-butyryl}-piperazine-1-carboxylic acid butyl ester] | 8.15 |
| CCCCOC(=O)N1CCN(C(=O)[C@H](Cc2ccc(P(=O)(OCC)OCC)cc2)NC(=O)c2csc(-c3ccccc3)n2)CC1 [Example 10, 4-{(S)-3-[4-(Diethoxy-phosphoryl)-phenyl]-2-[(2-phenyl-thiazole-4-carbonyl)-amino]-propionyl}-piperazine-1-carboxylic acid butyl ester] | 6.20 |
| CCCCOC(=O)N1CCN(C(=O)CNC(=O)c2csc(-c3ccccc3)n2)CC1 [Example 26, 4-{2-[(2-Phenyl-thiazole-4-carbonyl)-amino]-acetyl}-piperazine-1-carboxylic acid butyl ester] | 7.03 |
| CCCCOC(=O)N1CCN(C(=O)[C@H](CCC(=O)O)NC(=O)c2nc(-c3ccccc3)sc2N2CC[C@H](OC)C2)CC1 [Example 25, 4-((S)-4-Carboxy-2-{[5-((S)-3-methoxy-pyrrolidin-1-yl)-2-phenyl-thiazole-4-carbonyl]-amino}-butyryl)-piperazine-1-carboxylic acid butyl ester] | 8.52 |
| CCCCOC(=O)N1CCN(C(=O)[C@H](CCC(=O)O)NC(=O)c2csc(-c3cccc(OC)c3)n2)CC1 [Example 4, 4-((S)-4-Carboxy-2-{[2-(3-methoxy-phenyl)-thiazole-4-carbonyl]-amino}-butyryl)-piperazine-1-carboxylic acid butyl ester] | 6.60 |
| CCCCOC(=O)N1CCN(C(=O)[C@H](CCC(=O)O)NC(=O)c2nc(-c3ccccc3)sc2N2CCOCC2)CC1 [Example 23, 4-{(S)-4-Carboxy-2-[(5-morpholin-4-yl-2-phenyl-thiazole-4-carbonyl)-amino]-butyryl}-piperazine-1-carboxylic acid butyl ester] | 7.41 |
| CCCCOC(=O)N1CCN(C(=O)[C@H](CCC(=O)O)NC(=O)c2csc(-c3ccccc3C)n2)CC1 [Example 6, 4-{(S)-4-Carboxy-2-[(2-o-tolyl-thiazole-4-carbonyl)-amino]-butyryl}-piperazine-1-carboxylic acid butyl ester] | 6.48 |
| CCCCOC(=O)N1CCN(C(=O)[C@H](CCC(=O)O)NC(=O)c2nc(-c3ccccc3)sc2/C=C/C(=O)O)CC1 [Example 19, 4-((S)-4-Carboxy-2-{[5-((E)-2-carboxy-vinyl)-2-phenyl-thiazole-4-carbonyl]-amino}-butyryl)-piperazine-1-carboxylic acid butyl ester] | 8.22 |
| CCCCOC(=O)N1CCN(C(=O)[C@H](CCC(=O)O)NC(=O)c2nc(-c3ccccc3)sc2CCC(=O)O)CC1 [Example 20, 4-((S)-4-Carboxy-2-{[5-(2-carboxy-ethyl)-2-phenyl-thiazole-4-carbonyl]-amino}-butyryl)-piperazine-1-carboxylic acid butyl ester] | 7.89 |
| CCCCOC(=O)N1CCN(C(=O)[C@H](CP(=O)(OCC)OCC)NC(=O)c2nc(-c3ccccc3)sc2N2CCN(C)CC2)CC1 [Example 44, 4-((R)-3-(Diethoxy-phosphoryl)-2-{[5-(4-methyl-piperazin-1-yl)-2-phenyl-thiazole-4-carbonyl]-amino}-propionyl)-piperazine-1-carboxylic acid butyl ester] | 5.38 |
| CCOC(=O)N1CCN(C(=O)[C@H](CCC(=O)O)NC(=O)c2csc(-c3ccccc3)n2)CC1 [Example 2, 4-{(S)-4-Carboxy-2-[(2-phenyl-thiazole-4-carbonyl)-amino]-butyryl}-piperazine-1-carboxylic acid ethyl ester] | 6.61 |
| CCCCOC(=O)N1CCN(C(=O)[C@H](CP(=O)(O)O)NC(=O)c2csc(-c3ccccc3)n2)CC1 [Example 9, 4-{(R)-2-[(2-Phenyl-thiazole-4-carbonyl)-amino]-3-phosphono-propionyl}-piperazine-1-carboxylic acid butyl ester] | 8.70 |
